Laboratory results as given in paper PMC11979273, “A phase I study to evaluate the safety, tolerability, and pharmacokinetics of HEC113995PA·H2O, a novel dual-acting serotonergic antidepressant, in healthy subjects” (Frontiers in Pharmacology, 2025).
Read-outs that look alike come from different tables or passages of the source.

Assays:
[1] = Single ascending-dose (SAD) study, plasma pharmacokinetics; assay type: in vivo, human; conditions: for Cmax / AUC(0-t) / k el / AUC(0-inf) / MRT / Vd/F / half-life / Tmax: both sexes, human
Description: The study comprised a total of 7 dose groups (2.5, 5, 10, 20, 40, 60, and 80 mg groups, respectively). The first dose group (2.5 mg) consisted of 8 subjects, with 6 receiving HEC113995PA·H2O and 2 receiving placebo. Dose groups 2–7 each included 10 subjects, with 8 subjects receiving HEC113995PA·H2O and 2 subjects receiving placebo. Male and female participants were randomly assigned to the groups. Serial blood samples were collected before and after drug administration to determine the plasma concentration of pharmacokinetics (PK) and to evaluate the pharmacokinetic characteristics. The time points of blood collection and safety evaluation of PK in the second to seventh dose groups were adjusted based on the results of the first dose group. Drug safety and tolerability were evaluated on day 2 and 4 in the first dose group and on day 4 and 7 in the second to seventh dose groups. The trial was conducted in a dose-escalation manner, with progression to the next dose arm only after the safety of the previous arm had been evaluated. In the fourth group (20 mg group), in addition to blood samples, urine and stool samples were also collected for in vivo drug metabolic transformation studies.
In the first dose group of single ascending-dose study, PK blood samples were collected at 0.5 h before administration and 0.5, 1, 1.5, 2, 2.5, 3, 4, 5, 6, 8, 10, 12, 24, 36, 48, and 72 h after administration. In other SAD groups, MAD groups and food effect study, PK blood samples were collected at 0.5 h before administration, and 1, 2, 3, 4, 5, 6, 7, 8, 10, 12, 24, 48, 72, 96, 120 and 144 h after administration. Approximately 4 mL of venous blood was obtained from each collection and placed in a vacuum collection vessel containing K2EDTA anticoagulant. The blood was centrifuged and packed according to the instruction provided by the Biological Sample Detection and Analysis Unit. Briefly, all samples were centrifuged at 4°C, 1,500 g for 10 min within 0.5 h after blood collection. After centrifugation, the plasma was aliquoted into two cryogenic storage tubes. The first tube (Tube A) contained at least 0.8 mL of plasma for analytical testing, and the remaining plasma is allocated into the backup tube (Tube B). The plasma samples were stored at −80°C within 1 h after aliquoting for further analysis.
The concentration of HEC113995PA·H2O in human plasma samples (K2EDTA) was quantitatively analyzed using the LC-MS/MS method. Plasma samples (50 μL) were processed using protein precipitation with 5 μL deuterated internal standard (HEC124659) and 100 μL acetonitrile. The Shimadzu LCMS-8060 system coupled with a GL Sciences Inc. InertSustain AQ-C18 HP column (50 × 2.1 mm, 3 μm) achieved chromatographic separation through gradient elution using 0.04% TFA aqueous solution (pH 2.1) and acetonitrile at 0.4 mL/min. ESI-positive mode detection employed optimized parameters: 300°C interface temperature, 250°C DL temperature, 3 L/min nebulizer gas, and 400°C heating block temperature.
Using WinNonlin 7.0 for non-compartmental analysis (NCA), pharmacokinetic (PK) parameters were meticulously calculated based on the actual sampling times for plasma, urine, and fecal samples from each subject post-administration. These parameters encompassed a comprehensive range, including the area under the concentration–time curve (AUC), AUC from time zero (pre-dose) to the time of the last measurable concentration (AUC0-t), and AUC from time zero (pre-dose) to infinity (AUC0-∞). Additionally, maximum observed plasma concentration (Cmax), time to achieve maximum plasma concentration (Tmax), terminal elimination half-life (t1/2), elimination rate constant (Ke), apparent volume of distribution (Vd/F), clearance rate (CL/F), and mean residence time (MRT) were also determined. The AUC0-t and AUC0-∞ values were computed using the linear trapezoidal rule method. Tmax and Cmax were ascertained based on the actual observed data. […]

Solubility in solvents = assay type: physicochemical
5-HT transporter = 5-HT transporter (Homo sapiens, UniProt P31645); assay: In vitro affinity and antagonistic activity for the 5-HT transporter; assay type: binding; conditions: unpublished data
[2] = across single-dose groups 2.5–80 mg

Sequence of 5-HT transporter (P31645 whole entry, species assumed): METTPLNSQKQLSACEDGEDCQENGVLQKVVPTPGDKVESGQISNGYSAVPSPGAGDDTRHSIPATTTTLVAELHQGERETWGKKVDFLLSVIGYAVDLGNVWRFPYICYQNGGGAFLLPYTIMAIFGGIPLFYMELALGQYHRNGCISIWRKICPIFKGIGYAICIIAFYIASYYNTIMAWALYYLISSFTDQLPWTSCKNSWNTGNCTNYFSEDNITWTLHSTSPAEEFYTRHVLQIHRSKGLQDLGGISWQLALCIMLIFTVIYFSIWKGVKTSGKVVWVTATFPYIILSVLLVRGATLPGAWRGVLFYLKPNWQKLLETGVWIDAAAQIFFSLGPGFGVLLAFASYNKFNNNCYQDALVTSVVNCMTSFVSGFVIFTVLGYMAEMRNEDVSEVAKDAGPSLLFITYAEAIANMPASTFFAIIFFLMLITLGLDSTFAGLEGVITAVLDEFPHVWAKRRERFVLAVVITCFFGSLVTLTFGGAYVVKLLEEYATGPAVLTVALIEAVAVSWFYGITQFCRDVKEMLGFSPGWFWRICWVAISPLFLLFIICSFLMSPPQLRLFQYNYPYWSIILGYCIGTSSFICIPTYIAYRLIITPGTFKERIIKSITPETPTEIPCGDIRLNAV

Question: What does the source list for `Cc1nc(-c2cnc(N3CCN(CCCc4c[nH]c5ccc(C#N)cc45)CC3)nc2)sc1C(N)=O` [HEC113995PA·H2O]?
Answer: Cl/F ([1]; SAD single dose 2.5 mg, N = 6, mean (SD)): 12.03 (3.52) L/h; Cl/F ([1]; SAD single dose 5 mg, N = 8, mean (SD)): 10.94 (1.75) L/h; Cl/F ([1]; SAD single dose 10 mg, N = 8, mean (SD)): 12.65 (3.13) L/h; Cl/F ([1]; SAD single dose 20 mg, N = 8, mean (SD)): 14.53 (5.78) L/h; Cl/F ([1]; SAD single dose 40 mg, N = 8, mean (SD)): 14.14 (4.06) L/h; Cl/F ([1]; SAD single dose 60 mg, N = 8, mean (SD)): 15.07 (4.58) L/h; Cl/F ([1]; SAD single dose 80 mg, N = 8, mean (SD)): 14 (2.41) L/h; apparent clearance (CL/F), range of arithmetic means [1, 2]: 10.9380 to 15.0736 L/h; elimination rate constant (Kel), range of arithmetic means [1, 2]: 0.0187 to 0.0256 h⁻¹; Cmax ([1]; oral, SAD single dose 2.5 mg, N = 6, plasma, mean (SD), read-out: Cmax): 5.27 ng/mL; Cmax ([1]; oral, SAD single dose 5 mg, N = 8, plasma, mean (SD), read-out: Cmax): 14 ng/mL; Cmax ([1]; oral, SAD single dose 10 mg, N = 8, plasma, mean (SD), read-out: Cmax): 24.4 ng/mL; Cmax ([1]; oral, SAD single dose 20 mg, N = 8, plasma, mean (SD), read-out: Cmax): 40.6 ng/mL; Cmax ([1]; oral, SAD single dose 40 mg, N = 8, plasma, mean (SD), read-out: Cmax): 88.5 ng/mL; Cmax ([1]; oral, SAD single dose 60 mg, N = 8, plasma, mean (SD), read-out: Cmax): 149 ng/mL; Cmax ([1]; oral, SAD single dose 80 mg, N = 8, plasma, mean (SD), read-out: Cmax): 164 ng/mL; AUC(0-t) ([1]; plasma, oral, 2.5 mg, SAD single dose 2.5 mg, N = 6, mean (SD), read-out: AUC0-t): 177 ng·h/mL; AUC(0-t) ([1]; plasma, oral, 5 mg, SAD single dose 5 mg, N = 8, mean (SD), read-out: AUC0-t): 439 ng·h/mL; AUC(0-t) ([1]; plasma, oral, 10 mg, SAD single dose 10 mg, N = 8, mean (SD), read-out: AUC0-t): 801 ng·h/mL; AUC(0-t) ([1]; plasma, oral, 20 mg, SAD single dose 20 mg, N = 8, mean (SD), read-out: AUC0-t): 1450 ng·h/mL; AUC(0-t) ([1]; plasma, oral, 40 mg, SAD single dose 40 mg, N = 8, mean (SD), read-out: AUC0-t): 2910 ng·h/mL; AUC(0-t) ([1]; plasma, oral, 60 mg, SAD single dose 60 mg, N = 8, mean (SD), read-out: AUC0-t): 4100 ng·h/mL; AUC(0-t) ([1]; plasma, oral, 80 mg, SAD single dose 80 mg, N = 8, mean (SD), read-out: AUC0-t): 5650 ng·h/mL; k el ([1]; plasma, oral, SAD single dose 2.5 mg, N = 6, mean (SD)): 6.39e-06 s⁻¹; AUC(0-inf) ([1]; plasma, oral, SAD single dose 2.5 mg, N = 6, mean (SD), read-out: AUC0-∞): 220 ng·h/mL; MRT ([1]; plasma, oral, SAD single dose 2.5 mg, N = 6, mean (SD), read-out: MRT): 44.8 h; Vd/F ([1]; plasma, oral, SAD single dose 2.5 mg, N = 6, mean (SD), read-out: Vz/F): 518 L; half-life ([1]; plasma, oral, SAD single dose 2.5 mg, N = 6, mean (SD), read-out: t1/2 (converted)): 30.3 h; Tmax ([1]; plasma, oral, SAD single dose 2.5 mg, N = 6, median (min, max), read-out: Tmax): 6 h; k el ([1]; plasma, oral, SAD single dose 5 mg, N = 8, mean (SD)): 7.11e-06 s⁻¹; AUC(0-inf) ([1]; plasma, oral, SAD single dose 5 mg, N = 8, mean (SD), read-out: AUC0-∞): 467 ng·h/mL; MRT ([1]; plasma, oral, SAD single dose 5 mg, N = 8, mean (SD), read-out: MRT): 39.8 h; Vd/F ([1]; plasma, oral, SAD single dose 5 mg, N = 8, mean (SD), read-out: Vz/F): 430 L; half-life ([1]; plasma, oral, SAD single dose 5 mg, N = 8, mean (SD), read-out: t1/2 (converted)): 27.2 h; Tmax ([1]; plasma, oral, SAD single dose 5 mg, N = 8, median (min, max), read-out: Tmax): 5 h; k el ([1]; plasma, oral, SAD single dose 10 mg, N = 8, mean (SD)): 7.11e-06 s⁻¹; AUC(0-inf) ([1]; plasma, oral, SAD single dose 10 mg, N = 8, mean (SD), read-out: AUC0-∞): 832 ng·h/mL; MRT ([1]; plasma, oral, SAD single dose 10 mg, N = 8, mean (SD), read-out: MRT): 39.1 h; Vd/F ([1]; plasma, oral, SAD single dose 10 mg, N = 8, mean (SD), read-out: Vz/F): 494 L; half-life ([1]; plasma, oral, SAD single dose 10 mg, N = 8, mean (SD), read-out: t1/2 (converted)): 28 h; Tmax ([1]; plasma, oral, SAD single dose 10 mg, N = 8, median (min, max), read-out: Tmax): 6 h; k el ([1]; plasma, oral, SAD single dose 20 mg, N = 8, mean (SD)): 5.19e-06 s⁻¹; AUC(0-inf) ([1]; plasma, oral, SAD single dose 20 mg, N = 8, mean (SD), read-out: AUC0-∞): 1520 ng·h/mL; MRT ([1]; plasma, oral, SAD single dose 20 mg, N = 8, mean (SD), read-out: MRT): 42.2 h; Vd/F ([1]; plasma, oral, SAD single dose 20 mg, N = 8, mean (SD), read-out: Vz/F): 772 L; half-life ([1]; plasma, oral, SAD single dose 20 mg, N = 8, mean (SD), read-out: t1/2 (converted)): 38.6 h; Tmax ([1]; plasma, oral, SAD single dose 20 mg, N = 8, median (min, max), read-out: Tmax): 8 h; k el ([1]; plasma, oral, SAD single dose 40 mg, N = 8, mean (SD)): 6.08e-06 s⁻¹; AUC(0-inf) ([1]; plasma, oral, SAD single dose 40 mg, N = 8, mean (SD), read-out: AUC0-∞): 3010 ng·h/mL; MRT ([1]; plasma, oral, SAD single dose 40 mg, N = 8, mean (SD), read-out: MRT): 38.1 h; Vd/F ([1]; plasma, oral, SAD single dose 40 mg, N = 8, mean (SD), read-out: Vz/F): 661 L; half-life ([1]; plasma, oral, SAD single dose 40 mg, N = 8, mean (SD), read-out: t1/2 (converted)): 32.2 h; Tmax ([1]; plasma, oral, SAD single dose 40 mg, N = 8, median (min, max), read-out: Tmax): 5 h; k el ([1]; plasma, oral, SAD single dose 60 mg, N = 8, mean (SD)): 6.11e-06 s⁻¹; AUC(0-inf) ([1]; plasma, oral, SAD single dose 60 mg, N = 8, mean (SD), read-out: AUC0-∞): 4240 ng·h/mL; MRT ([1]; plasma, oral, SAD single dose 60 mg, N = 8, mean (SD), read-out: MRT): 35.3 h; Vd/F ([1]; plasma, oral, SAD single dose 60 mg, N = 8, mean (SD), read-out: Vz/F): 762 L; half-life ([1]; plasma, oral, SAD single dose 60 mg, N = 8, mean (SD), read-out: t1/2 (converted)): 36.6 h; Tmax ([1]; plasma, oral, SAD single dose 60 mg, N = 8, median (min, max), read-out: Tmax): 5.5 h; k el ([1]; plasma, oral, SAD single dose 80 mg, N = 8, mean (SD)): 6.08e-06 s⁻¹; AUC(0-inf) ([1]; plasma, oral, SAD single dose 80 mg, N = 8, mean (SD), read-out: AUC0-∞): 5870 ng·h/mL; MRT ([1]; plasma, oral, SAD single dose 80 mg, N = 8, mean (SD), read-out: MRT): 40.5 h; Vd/F ([1]; plasma, oral, SAD single dose 80 mg, N = 8, mean (SD), read-out: Vz/F): 666 L; half-life ([1]; plasma, oral, SAD single dose 80 mg, N = 8, mean (SD), read-out: t1/2 (converted)): 33.4 h; Tmax ([1]; plasma, oral, SAD single dose 80 mg, N = 8, median (min, max), read-out: Tmax): 6 h; AUC(0-t) ([1]; plasma, oral, across single-dose groups 2.5–80 mg, read-out: AUC0-t, geometric mean range): 172 to 5580 ng·h/mL; AUC(0-inf) ([1]; plasma, oral, across single-dose groups 2.5–80 mg, read-out: AUC0-∞, geometric mean range): 214 to 5790 ng·h/mL; AUC(0-t) ([1]; plasma, oral, across single-dose groups 2.5–80 mg, read-out: AUC0–24h, geometric mean range): 88.4 to 2680 ng·h/mL; Cmax ([1]; plasma, oral, across single-dose groups 2.5–80 mg, read-out: Cmax, geometric mean range): 5.1 to 157 ng/mL; Vd/F ([1]; plasma, oral, across single-dose groups 2.5–80 mg, read-out: apparent volume of distribution (Vz/F), range of arithmetic means): 430 to 772 L; half-life ([1]; plasma, oral, across single-dose groups 2.5–80 mg, read-out: half-life (t1/2), range of arithmetic means): 27.2 to 38.6 h; MRT ([1]; plasma, oral, across single-dose groups 2.5–80 mg, read-out: mean residence time (MRT), range of arithmetic means): 35.3 to 44.8 h; Tmax ([1]; plasma, oral, across single-dose groups 2.5–80 mg, read-out: median time to peak plasma concentration (Tmax), range): 5 to 8 h; AUC(0-inf) ([1]; plasma, po, SAD single dose 20 mg, N = 8, mean (SD), read-out: AUC0-∞): 1520 ng·h/mL; Cmax higher than Vilazodone ([1]; equivalent 20 mg doses (40.6 vs. 28.5 ng/mL)): 42%; AUC0-∞ greater than Vilazodone ([1]; equivalent 20 mg doses (1,519.6 vs. 502 h ng/mL)): threefold greater; solubility (Solubility in solvents; 95% ethanol): practically insoluble; solubility (Solubility in solvents; N,N-dimethylacetamide (DMA)): soluble; solubility (Solubility in solvents; acetone): practically insoluble; solubility (Solubility in solvents; acetonitrile): practically insoluble; solubility (Solubility in solvents; dichloromethane): practically insoluble; solubility (Solubility in solvents; dimethyl sulfoxide (DMSO)): readily soluble; solubility (Solubility in solvents; methanol): practically insoluble; solubility (Solubility in solvents; water): practically insoluble; affinity and antagonistic activity for the 5-HT transporter (5-HT transporter): at the nanomolar level
